The source of these data is paper PMC10706821, “Folate-Appended Hydroxypropyl-β-Cyclodextrin Induces Autophagic Cell Death in Acute Myeloid Leukemia Cells” (International Journal of Molecular Sciences, 2023).

Series [1] relates to HL-60. In words: modified MTT assay (Cell Counting Kit-8), cell proliferation. It is filed as cell-based, human. As to the method:
(§1) The trypan blue dye exclusion method was used to evaluate cell viability. Cells (HL-60, THP1, SKM1 and Kasumi1 cells) were seeded in flat-bottomed 96-well plates at a density of 1 × 10^4 cells in 100 µL medium per well and incubated with FA-HP-β-CyD (0, 0,1, 0.25, 0.5, 0.75, 1 mM) or HP-β-CyD (0, 1, 2.5, 5, 10 mM) for 72 h. Then, viable cells were counted. Cell proliferation was evaluated by a modified MTT assay using Cell Counting Kit-8 (Dojindo Molecular Technologies, Kumamoto, Japan), as previously described. AML cells were cultured in 96-well plates at a density of 1 × 10^4 cells in 100 µL medium per well and incubated with FA-HP-β-CyD or HP-β-CyD for 72 h. The half-maximal inhibitory concentration values (IC50) were determined by non-linear regression using CalcuSyn software version 1.1.1 (Biosoft, Cambridge, UK), as previously described. After obtaining IC50 values for each agent, the antileukemic activity of FA-HP-β-CyD plus cytosine arabinoside (Ara-C) or Venetoclax was evaluated, as previously described. […] CalcuSyn was used to calculate the fraction affected (Fa, in which a value of 0.25 indicates […]) and the CI. This method is capable of quantifying synergistic (CI < 1) and antagonistic (CI > 1) effects at different dose and effect levels.
In general terms: Tetrazolium assays rely on reduction of a dye to a coloured formazan, in cell work by metabolically active cells.

In the next series the test system is SKM-1. Described as above. It is filed as cell-based, human. As to the method:
as §1

The test system of the next series is THP-1. Described as above. The class given is cell-based, human. As to the method: as §1
The subject of a further series is HL-60 cells. In words: AML xenograft survival model. The class given is in vivo, BALB/c Rag-2/JAK3 double-deficient (BRJ) mice. Conditions: HL-60 xenograft, 20 days; for Median Survival Time: HP-β-CyD 2086.5 mg/kg i.p. twice a day, FA-HP-β-CyD 249 mg/kg i.p. twice a day, n = 6. As to the method: (§2) BALB/c Rag-2/JAK3 double-deficient (BRJ) mice were housed in a specific pathogen-free barrier facility and used for the xenograft transplantation experiments. All animal experiments were approved by the Institutional Review Board of Saga University and conducted in accordance with the institutional guidelines of animal care of Saga University.
(§3) HL-60 cells or THP-1 cells were injected intravenously into BRJ mice. After 72 h, mice were injected intraperitoneally with 200 μL of vehicle, FA-HP-β-CyD (15 mM, 249 mg/kg), or HP-β-CyD (150 mM, 2086.5 mg/kg) for 20 consecutive days, and survival was monitored daily. Ara-C (100 mg/kg) was injected intraperitoneally for 5 consecutive days from 72 h after transplantation. Venetoclax (25 mg/kg) was orally administered for 20 consecutive days from 72 h after transplantation. Chimerism of human leukemic cells in the BM was determined by flow cytometry after double staining with FITC-conjugated anti-human CD45 (BD Bioscience) and PE/Cy7-conjugated anti-mouse CD45 (BioLegend) antibodies. All surgery was performed under sodium pentobarbital anesthesia to minimize pain. Mice were euthanized with ether when they became moribund or were unable to obtain food or water, as recommended by Saga University institutional guidelines. Survival data were analyzed using a log-rank nonparametric test and presented as Kaplan–Meier survival curves (n = 6 for each group).

A further series concerns THP1 cells. As to the kind of experiment: AML xenograft survival model. The class given is in vivo, BALB/c Rag-2/JAK3 double-deficient (BRJ) mice. Particulars: 20 days; for Median Survival Time: Figure 7B, HP-β-CyD 2086.5 mg/kg i.p. twice a day, FA-HP-β-CyD 249 mg/kg i.p. twice a day, Ara-C 100 mg/kg i.p., n = 6. As to the method: as §2, §3
A further series concerns Kasumi-1. As to the kind of experiment: modified MTT assay (Cell Counting Kit-8), cell proliferation. It is filed as cell-based, human. Conditions: Kasumi-1, 72 h. As to the method: (§4) The trypan blue dye exclusion method was used to evaluate cell viability. Cells (HL-60, THP1, SKM1 and Kasumi1 cells) were seeded in flat-bottomed 96-well plates at a density of 1 × 10^4 cells in 100 µL medium per well and incubated with FA-HP-β-CyD (0, 0,1, 0.25, 0.5, 0.75, 1 mM) or HP-β-CyD (0, 1, 2.5, 5, 10 mM) for 72 h. Then, viable cells were counted. Cell proliferation was evaluated by a modified MTT assay using Cell Counting Kit-8 (Dojindo Molecular Technologies, Kumamoto, Japan), as previously described. AML cells were cultured in 96-well plates at a density of 1 × 10^4 cells in 100 µL medium per well and incubated with FA-HP-β-CyD or HP-β-CyD for 72 h. […] This method is capable of quantifying synergistic (CI < 1) and antagonistic (CI > 1) effects at different dose and effect levels.

For series [2], the system named is AML cell lines. In words: trypan blue dye exclusion, cell viability. The class given is cell-based, human. Particulars: 72 h; FA-HP-β-CyD up to 1 mM, HP-β-CyD up to 10 mM. As to the method: as §4
Series [3] relates to AML cell lines. In words: Annexin V and PI staining, statements over all AML cell lines. It is filed as cell-based, human. Particulars: four AML cell lines, 72 h.
Protocol: PI and Annexin V (BD Biosciences, San Jose, CA, USA) staining was performed to assess apoptosis, as previously described [53]. Cells were filtered through nylon mesh and assessed using a FACSVerse flow cytometer (BD Biosciences). Data were analyzed using FlowJo software 10.8.2 (Tree Star, Inc., Ashland, OR, USA).
The subject of series [4] is HL-60. In words: cell cycle analysis (PI, flow cytometry). It is filed as cell-based, human. Particulars: HL-60, 24 h. As to the method: (§5) Cell cycle analyses of AML cell lines (HL-60, THP1, SKM1, and Kasumi1 cells) were performed as described previously. In brief, 1 × 10^6 cells were treated with the indicated concentrations of CyDs. After 24 h of CyD treatment, cells were collected and fixed with 70% ethanol. Cells were then incubated at room temperature for 30 min with 0.1% Triton X-100/0.5% RNase A and stained with 50 μg/mL PI (BD Biosciences, San Jose, CA, USA). Cellular DNA content was analyzed by flow cytometry, and cell cycle profiles were determined in a FACS CantoII flow cytometer with CellQuest software (version 1.0.6, BD Biosciences).

Another series relates to Kasumi1. As to the kind of experiment: cell cycle analysis (PI, flow cytometry). It is filed as cell-based, human. Conditions: Kasumi1, 24 h. As to the method:
as §5
For orientation: Flow cytometry measures light scatter and fluorescence of single cells or particles in a stream.

The subject of a further series is SKM1. In words: cell cycle analysis (PI, flow cytometry). It is filed as cell-based, human. Particulars: SKM1. As to the method: as §5
The subject of series [5] is THP1. In words: cell cycle analysis (PI, flow cytometry). It is filed as cell-based, human. Conditions: THP1, 24 h. As to the method: as §5
Series [6] has as its system HL-60. In words: autophagosome formation (DAPGreen). The class given is cell-based, human. Particulars: HL-60, 1 or 10 mM, 2 h. As to the method: (§6) Autophagosome formation was evaluated using the DAPGreen-Autophagy Detection Kit (Dojindo Molecular Technologies). HL-60 and THP1 cells were cultured overnight in 6-well plates at a density of 5 × 10^5 or 1 × 10^6 cells. The cells were then washed once with culture medium and incubated with DAPGreen working solution at 37 °C for 30 min. After the cells were washed twice, CyDs (1 mM, 10 mM) were added to the wells and incubated for 2 h. The samples were analyzed using a flow cytometer (FACS Canto II) or a fluorescence microscope (Carl Zeiss, Jena, Germany).

The test system of series [7] is THP1. As to the kind of experiment: autophagosome formation (DAPGreen). It is filed as cell-based, human. Conditions: THP1, 1 or 10 mM, 2 h. As to the method:
as §6

The subject of series [8] is HL-60. In words: cell viability with autophagy inhibitors (Cell Counting Kit-8). It is filed as cell-based, human. Particulars: 1 mM FA-HP-β-CyD or 10 mM HP-β-CyD, chloroquine 20 μM, LY294002 50 μM, bafilomycin A1 1 nM. As to the method: (§7) HL-60 and THP1 cells (2 × 10^5 cells in 100 µL of RPMI-1640 medium per well) were seeded in flat-bottomed 96-well plates (Greiner Labortechnik, Hamburg, Germany) and treated with both 1 mM of FA-HP-β-CyD and 10 mM of HP-β-CyD at 37 °C for 2 h. The cells were then pretreated for 24 h with the autophagy inhibitors chloroquine (20 µM), LY294002 (50 μM; Fujifilm Wako Pure Chemicals Co., Ltd., Osaka, Japan), or bafilomycin A1 (1 nM; Funakoshi, Tokyo, Japan). Cell proliferation was assessed using Cell Counting Kit-8.

Series [9] has as its system THP1. Described as above. It is filed as cell-based, human. Particulars: 1 mM FA-HP-β-CyD or 10 mM HP-β-CyD, chloroquine 20 μM, LY294002 50 μM, bafilomycin A1 1 nM. As to the method:
as §7

For series [10] the following is noted: mouse, in vivo, ip.
Protocol: At 24 h after the first injection, and at 8 days after the last of seven repeat injections, peripheral blood was collected from the tail vein and analyzed by an automated blood cell counter (Celltacα MEK-6500; NIHON KOHDEN, Tokyo, Japan). Data are presented as the mean ± SEM of three independent experiments.
[11] abbreviates: Figure 7A, Ara-C 100 mg/kg i.p.
Setting [12] is: Figure 7C, Venetoclax 25 mg/kg oral gavage daily.

With `Nc1ccn([C@@H]2O[C@H](CO)[C@@H](O)[C@@H]2O)c(=O)n1` [Ara-C, cytarabine], the IC50 in the series on HL-60 [1] (Homo sapiens, HL-60) turned out to be 0.495 µM; with SKM-1 (Homo sapiens, SKM-1, SKM1), 0.6 µM; with THP-1 (Homo sapiens, THP-1, THP1), 7.19 µM. Further, the entries for the “Median Survival Time” value with HL-60 cells (setting [11]) and with THP1 cells were 34 days and 45.5 days, respectively.
For the compound `CC1(C)CCC(CN2CCN(c3ccc(C(=O)NS(=O)(=O)c4ccc(NCC5CCOCC5)c([N+](=O)[O-])c4)c(Oc4cnc5[nH]ccc5c4)c3)CC2)=C(c2ccc(Cl)cc2)C1` [Venetoclax], the IC50 with HL-60 [1] (Homo sapiens, HL-60) came out at 0.0503 µM; in the series on SKM-1 (Homo sapiens, SKM-1, SKM1), 1.1 µM; in the series on THP-1 (Homo sapiens, THP-1, THP1), 0.442 µM. The “Median Survival Time” value in the series on HL-60 cells (setting [12]) came out at 36 days.
With “folate-conjugated HP-β-CyD [FA-HP-β-CyD]”, the IC50 is 620 µM in the series on HL-60 [1] (HL-60, 72 h); 200 µM in the series with SKM-1 (SKM-1, 72 h); 320 µM with THP-1 (THP-1, 72 h); 300 µM in the series on Kasumi-1. In the series on AML cell lines [2], the “cell viability (trypan blue)” value is “reduced the cell viability of the AML cell lines in a dose-dependent manner”. Besides, the apoptosis induction entry with AML cell lines [3] was “triggered early apoptosis in four AML cell lines in a dose-dependent manner”. Also, the “effect on cell cycle status” value in the series on HL-60 [4], in the series on Kasumi1 and in the series with THP1 [5] was “no alteration in cell cycle status” each time. In addition, the “effect on cell cycle status (predicted, no experimental data)” value in the series on SKM1 is on record as “no change in the cell cycle status was predicted”. Besides, the “number of autophagic vacuoles (DAPGreen fluorescence)” value in the series with HL-60 [6] and in the series with THP1 [7] was “increased” throughout. The “viability in the presence of autophagy inhibitors vs CyD alone” value in the series with HL-60 [8] and in the series with THP1 [9] was “higher than that in the presence of FA-HP-β-CyD alone” each time. Besides, the “Median Survival Time” value came out at 38 days in the series on HL-60 cells (setting [11]), 35 days in the series with HL-60 cells (setting [12]) and 50.5 days in the series on THP1 cells. Besides, the “survival compared with vehicle-injected mice” value with HL-60 cells (249 mg/kg i.p. b.i.d.) and in the series with THP1 cells (249 mg/kg i.p. b.i.d.) was “survived significantly longer” each time. Besides, the “adverse effects on white blood cell counts, hemoglobin concentrations, platelet counts” value in [10] is reported as “no adverse effects”.

Usually IC50 stands for the concentration needed to halve the response being measured.
